Values quoted from earlier work, collected in patent publication US12251376B2, “Combinations with thiazolidinediones for use in the prevention or treatment of abnormal bone growth” (SERVIZO GALEGO DE SAÚDE (SERGAS), priority 2019, dated 2025).
Values joined by “and” are separate entries in the source; they are usually repeats but may differ in a detail not shown here. Identical values can stand only once. Values belong to the compound of their own block, whether it stands above or below them.

Assays:
[1] = tested on: abnormal bone growth; settings: for preventing recurrence of heterotopic ossification after total hip replacement: state of the art
[2] = not given; remark: listed apart in the source
[3] = not given; remark: listed apart in the source

Compound: CC(=O)Oc1ccccc1C(=O)O [aspirin]
preventing recurrence of heterotopic ossification after total hip replacement [1]: some effect

Bioavailability (oral): total
Compound: COc1ccc2c(c1)c(CC(=O)O)c(C)n2C(=O)c1ccc(Cl)cc1 [indomethacin]
reduction of abnormal bone growth (clinical data) ([1]; 75 mg retard administration): significantly reduce | preventing recurrence of heterotopic ossification after total hip replacement [1]: some effect

Compound: CC(C)Cc1ccc(C(C)C(=O)O)cc1 (centres unmarked) [ibuprofen]
preventing recurrence of heterotopic ossification after total hip replacement [1]: some effect

solubility [2]: highly insoluble | Volume of distribution (in vivo): 0.25 L/kg | Bioavailability (oral): > 80% and ~83% | time of maximum plasma dose after oral administration (oral): 2 h | increase of plasma concentration with dose (tested from 2 mg to 60 mg): Linear increase | doses shown safe in clinical trials [3]: up to 180 mg/day
Compound: CCc1ccc(CCOc2ccc(CC3SC(=O)NC3=O)cc2)nc1 (centres unmarked) [pioglitazone]
